Tested on: participants with migraine
Assay: Safety: serious adverse events and adverse events of special interest in the 3×3 factorial trial
[1] = Anytime between Week 0 to Week 12, % of participants
[2] = Anytime between Week 0 to Week 12, n/N participants
[3] = Randomization, % of participants
[4] = Randomization, n/N participants

For `CCC(C)(C)C(=O)O[C@H]1C[C@@H](C)C=C2C=C[C@H](C)[C@H](CC[C@@H]3C[C@@H](O)CC(=O)O3)[C@H]21` [Simvastatin, simvastatin], the “Subjects with any serious adverse event (SAE) in 12 weeks (n/N)” value (12 weeks) was 0/9, the “Subjects with any serious adverse event (SAE) in 12 weeks (percent)” value (12 weeks) was 0.0% and the “Any SAEs” value [1] was “(0.0%)”. The Bradycardia [1] was “(0.0%)”, the Falls [1] was “(0.0%)” and the Feeling faint/dizziness [1] was “(33.3%)”. For the same compound, the Flushing [1] was “(11.1%)”, the Gastrointestinal complaints [1] was “(22.2%)” and the Gout [1] was “(0.0%)”. The Headache [1] was “(100.0%)”, the Insomnia [1] was “(22.2%)” and the Muscle cramps [1] was “(11.1%)”. For the same compound, the Myalgia [1] was “(0.0%)”, the Nightmares [1] was “(11.1%)” and the Pedal edema [1] was “(0.0%)”. The Skin rash/itching [1] was “(11.1%)”, the Syncope [1] was “(0.0%)” and the “Any SAEs” value [2] was 0/9. The Bradycardia [2] was 0/9, the Falls [2] was 0/9 and the Feeling faint/dizziness [2] was 3/9. The Flushing [2] was 1/9, the Gastrointestinal complaints [2] was 2/9 and the Gout [2] was 0/9. The Headache [2] was 9/9, the Insomnia [2] was 2/9 and the Muscle cramps [2] was 1/9. For the same compound, the Myalgia [2] was 0/9, the Nightmares [2] was 1/9 and the Pedal edema [2] was 0/9. For the same compound, the Skin rash/itching [2] was 1/9, the Syncope [2] was 0/9 and the “Any SAEs since the last visit?” value [3] was “(0.0%)”. The Bradycardia [3] was “(0.0%)”, the Falls [3] was “(11.1%)” and the Feeling faint/dizziness [3] was “(22.2%)”. The Flushing [3] was “(33.3%)”, the Gastrointestinal complaints [3] was “(0.0%)” and the Gout [3] was “(0.0%)”. The Headache [3] was “(100.0%)”, the Insomnia [3] was “(22.2%)” and the Muscle cramps [3] was “(22.2%)”. For the same compound, the Myalgia [3] was “(0.0%)”, the Nightmares [3] was “(11.1%)” and the Pedal edema [3] was “(0.0%)”. The Skin rash/itching [3] was “(0.0%)”, the Syncope [3] was “(0.0%)” and the “Any SAEs since the last visit?” value [4] was 0/9. The Bradycardia [4] was 0/9, the Falls [4] was 1/9 and the Feeling faint/dizziness [4] was 2/9. For the same compound, the Flushing [4] was 3/9, the Gastrointestinal complaints [4] was 0/9 and the Gout [4] was 0/9. For the same compound, the Headache [4] was 9/9, the Insomnia [4] was 2/9 and the Muscle cramps [4] was 2/9. For the same compound, the Myalgia [4] was 0/9, the Nightmares [4] was 1/9 and the Pedal edema [4] was 0/9. For the same compound, the Skin rash/itching [4] was 0/9, the Syncope [4] was 0/9 and the “Any SAEs since the last visit?” value (Week 4, % of participants) was “(0.0%)”. The Bradycardia (Week 4, % of participants) was “(0.0%)”, the Falls (Week 4, % of participants) was “(0.0%)” and the Feeling faint/dizziness (Week 4, % of participants) was “(22.2%)”. The Flushing (Week 4, % of participants) was “(11.1%)”, the Gastrointestinal complaints (Week 4, % of participants) was “(11.1%)” and the Gout (Week 4, % of participants) was “(0.0%)”. The Headache (Week 4, % of participants) was “(100.0%)”, the Insomnia (Week 4, % of participants) was “(22.2%)” and the Muscle cramps (Week 4, % of participants) was “(0.0%)”. For the same compound, the Myalgia (Week 4, % of participants) was “(0.0%)”, the Nightmares (Week 4, % of participants) was “(0.0%)” and the Pedal edema (Week 4, % of participants) was “(0.0%)”. For the same compound, the Skin rash/itching (Week 4, % of participants) was “(0.0%)”, the Syncope (Week 4, % of participants) was “(0.0%)” and the “Any SAEs since the last visit?” value (Week 4, n/N participants) was 0/9. For the same compound, the Bradycardia (Week 4, n/N participants) was 0/9, the Falls (Week 4, n/N participants) was 0/9 and the Feeling faint/dizziness (Week 4, n/N participants) was 2/9. The Flushing (Week 4, n/N participants) was 1/9, the Gastrointestinal complaints (Week 4, n/N participants) was 1/9 and the Gout (Week 4, n/N participants) was 0/9. For the same compound, the Headache (Week 4, n/N participants) was 9/9, the Insomnia (Week 4, n/N participants) was 2/9 and the Muscle cramps (Week 4, n/N participants) was 0/9. For the same compound, the Myalgia (Week 4, n/N participants) was 0/9, the Nightmares (Week 4, n/N participants) was 0/9 and the Pedal edema (Week 4, n/N participants) was 0/9. For the same compound, the Skin rash/itching (Week 4, n/N participants) was 0/9, the Syncope (Week 4, n/N participants) was 0/9 and the “Any SAEs since the last visit?” value (Week 8, % of participants) was “(0.0%)”. The Bradycardia (Week 8, % of participants) was “(0.0%)”, the Falls (Week 8, % of participants) was “(0.0%)” and the Feeling faint/dizziness (Week 8, % of participants) was “(11.1%)”. The Flushing (Week 8, % of participants) was “(11.1%)”, the Gastrointestinal complaints (Week 8, % of participants) was “(11.1%)” and the Gout (Week 8, % of participants) was “(0.0%)”. For the same compound, the Headache (Week 8, % of participants) was “(88.9%)”, the Insomnia (Week 8, % of participants) was “(22.2%)” and the Muscle cramps (Week 8, % of participants) was “(0.0%)”. The Myalgia (Week 8, % of participants) was “(0.0%)”, the Nightmares (Week 8, % of participants) was “(0.0%)” and the Pedal edema (Week 8, % of participants) was “(0.0%)”. The Skin rash/itching (Week 8, % of participants) was “(0.0%)”, the Syncope (Week 8, % of participants) was “(0.0%)” and the “Any SAEs since the last visit?” value (Week 8, n/N participants) was 0/9. The Bradycardia (Week 8, n/N participants) was 0/9, the Falls (Week 8, n/N participants) was 0/9 and the Feeling faint/dizziness (Week 8, n/N participants) was 1/9. For the same compound, the Flushing (Week 8, n/N participants) was 1/9, the Gastrointestinal complaints (Week 8, n/N participants) was 1/9 and the Gout (Week 8, n/N participants) was 0/9. For the same compound, the Headache (Week 8, n/N participants) was 8/9, the Insomnia (Week 8, n/N participants) was 2/9 and the Muscle cramps (Week 8, n/N participants) was 0/9. The Myalgia (Week 8, n/N participants) was 0/9, the Nightmares (Week 8, n/N participants) was 0/9 and the Pedal edema (Week 8, n/N participants) was 0/9. For the same compound, the Skin rash/itching (Week 8, n/N participants) was 0/9, the Syncope (Week 8, n/N participants) was 0/9 and the “Any SAEs since the last visit?” value (Week 12, % of participants) was “(0.0%)”. For the same compound, the Bradycardia (Week 12, % of participants) was “(0.0%)”, the Falls (Week 12, % of participants) was “(0.0%)” and the Feeling faint/dizziness (Week 12, % of participants) was “(0.0%)”. For the same compound, the Flushing (Week 12, % of participants) was “(0.0%)”, the Gastrointestinal complaints (Week 12, % of participants) was “(22.2%)” and the Gout (Week 12, % of participants) was “(0.0%)”. The Headache (Week 12, % of participants) was “(88.9%)”, the Insomnia (Week 12, % of participants) was “(22.2%)” and the Muscle cramps (Week 12, % of participants) was “(11.1%)”. The Myalgia (Week 12, % of participants) was “(0.0%)”, the Nightmares (Week 12, % of participants) was “(11.1%)” and the Pedal edema (Week 12, % of participants) was “(0.0%)”. The Skin rash/itching (Week 12, % of participants) was “(11.1%)”, the Syncope (Week 12, % of participants) was “(0.0%)” and the “Any SAEs since the last visit?” value (Week 12, n/N participants) was 0/9. The Bradycardia (Week 12, n/N participants) was 0/9, the Falls (Week 12, n/N participants) was 0/9 and the Feeling faint/dizziness (Week 12, n/N participants) was 0/9. The Flushing (Week 12, n/N participants) was 0/9, the Gastrointestinal complaints (Week 12, n/N participants) was 2/9 and the Gout (Week 12, n/N participants) was 0/9. The Headache (Week 12, n/N participants) was 8/9, the Insomnia (Week 12, n/N participants) was 2/9 and the Muscle cramps (Week 12, n/N participants) was 1/9. For the same compound, the Myalgia (Week 12, n/N participants) was 0/9, the Nightmares (Week 12, n/N participants) was 1/9 and the Pedal edema (Week 12, n/N participants) was 0/9. For the same compound, the Skin rash/itching (Week 12, n/N participants) was 1/9, the Syncope (Week 12, n/N participants) was 0/9 and the “Any SAEs since the last visit?” value (Week 13, % of participants) was “(0.0%)”. For the same compound, the Bradycardia (Week 13, % of participants) was “(0.0%)”, the Falls (Week 13, % of participants) was “(0.0%)” and the Feeling faint/dizziness (Week 13, % of participants) was “(11.1%)”. For the same compound, the Flushing (Week 13, % of participants) was “(0.0%)”, the Gastrointestinal complaints (Week 13, % of participants) was “(11.1%)” and the Gout (Week 13, % of participants) was “(0.0%)”. For the same compound, the Headache (Week 13, % of participants) was “(100.0%)”, the Insomnia (Week 13, % of participants) was “(11.1%)” and the Muscle cramps (Week 13, % of participants) was “(22.2%)”. For the same compound, the Myalgia (Week 13, % of participants) was “(11.1%)”, the Nightmares (Week 13, % of participants) was “(11.1%)” and the Pedal edema (Week 13, % of participants) was “(0.0%)”. For the same compound, the Rebound hypertension (Week 13, % of participants) was “(0.0%)”, the Skin rash/itching (Week 13, % of participants) was “(11.1%)” and the Syncope (Week 13, % of participants) was “(0.0%)”. For the same compound, the “Any SAEs since the last visit?” value (Week 13, n/N participants) was 0/9, the Bradycardia (Week 13, n/N participants) was 0/9 and the Falls (Week 13, n/N participants) was 0/9. The Feeling faint/dizziness (Week 13, n/N participants) was 1/9, the Flushing (Week 13, n/N participants) was 0/9 and the Gastrointestinal complaints (Week 13, n/N participants) was 1/9. For the same compound, the Gout (Week 13, n/N participants) was 0/9, the Headache (Week 13, n/N participants) was 9/9 and the Insomnia (Week 13, n/N participants) was 1/9. The Muscle cramps (Week 13, n/N participants) was 2/9, the Myalgia (Week 13, n/N participants) was 1/9 and the Nightmares (Week 13, n/N participants) was 1/9. The Pedal edema (Week 13, n/N participants) was 0/9, the Rebound hypertension (Week 13, n/N participants) was 0/9 and the Skin rash/itching (Week 13, n/N participants) was 1/9. The Syncope (Week 13, n/N participants) was 0/9, the “Any SAEs since the last visit?” value (Week 16, % of participants) was “(11.1%)” and the Bradycardia (Week 16, % of participants) was “(0.0%)”. The Falls (Week 16, % of participants) was “(11.1%)”, the Feeling faint/dizziness (Week 16, % of participants) was “(22.2%)” and the Headache (Week 16, % of participants) was “(77.8%)”. The Muscle cramps (Week 16, % of participants) was “(0.0%)”, the Pedal edema (Week 16, % of participants) was “(0.0%)” and the Syncope (Week 16, % of participants) was “(0.0%)”. The “Any SAEs since the last visit?” value (Week 16, n/N participants) was 1/9, the Bradycardia (Week 16, n/N participants) was 0/9 and the Falls (Week 16, n/N participants) was 1/9. For the same compound, the Feeling faint/dizziness (Week 16, n/N participants) was 2/9, the Headache (Week 16, n/N participants) was 7/9 and the Muscle cramps (Week 16, n/N participants) was 0/9. The Pedal edema (Week 16, n/N participants) was 0/9 and the Syncope (Week 16, n/N participants) was 0/9.

— patent publication US12661345B2, “Compositions for the treatment of hypertension” (The George Institute for Global Health, priority 2017, dated 2026)
